{
  "source": "patent US4232166A",
  "about": "“15-Deoxy-16-hydroxy-17-methylene prostaglandins of the E and F series” (American Cyanamid Company, priority 1979, dated 1980)",
  "assay_type_in_all_cases": "in vivo",
  "key": {"[1]": {"tested_on": "bronchospasms elicited by serotonin", "assay": "Konzett procedure: bronchodilator activity in Guinea-Pigs against bronchospasms elicited by intravenous serotonin", "conditions": "Cavia porcellus, three logarithmic cumulative intravenous doses", "protocol": "(§1) The bronchodilator activity for representative compounds of this invention was determined in Guinea-Pigs against bronchospasms elicited by intravenous injections of serotonin, histamine, and acetylcholine, by the Konzett procedure the details of which are those discussed by J. Lulling, P Lievens, F. El Sayed and J. Prignot, Arzeimittel-Forschung 18, 995 (1968).\n(§2) In the table which follows, bronchodilator activity for representative compounds of the invention against spasmogenic agents serotonin, histamine, and acetylcholine is expressed as an ED50 determined from the results obtained with three logarithmic cumulative intravenous doses."}, "[2]": {"tested_on": "bronchospasms elicited by acetylcholine", "assay": "Konzett procedure: bronchodilator activity in Guinea-Pigs against bronchospasms elicited by intravenous acetylcholine", "conditions": "Cavia porcellus, three logarithmic cumulative intravenous doses, read-out: ED50 ACETYL CHOLINE", "protocol": "as §1, §2"}, "[3]": {"tested_on": "bronchospasms elicited by histamine", "assay": "Konzett procedure: bronchodilator activity in Guinea-Pigs against bronchospasms elicited by intravenous histamine", "conditions": "Cavia porcellus, three logarithmic cumulative intravenous doses", "protocol": "as §1, §2"}},
  "data": [
    {"molecule": "C=C(CCC)C(C)(O)C/C=C/[C@H]1[C@H](O)CC(=O)[C@@H]1C/C=C\\CCCC(=O)O", "note": "(relative stereo) [dl 9-oxo-11α,16-dihydroxy-16-methyl-17-methylene-5-cis,13-trans-prostadienoic acid]", "values": [
      {"measurement": "ED50", "setting": "[1]", "value": 2.5, "unit": "µg/kg"},
      {"measurement": "ED50", "setting": "[2]", "value": 3.6, "unit": "µg/kg"},
      {"measurement": "ED50", "setting": "[3]", "value": 1.2, "unit": "µg/kg"}
    ]},
    {"molecule": "C=C(CCC)C(O)C/C=C/[C@H]1[C@H](O)CC(=O)[C@@H]1C/C=C\\CCCC(=O)O", "note": "(relative stereo) [dl 9-oxo-11α,16-dihydroxy-17-methylene-5-cis, 13-trans-prostadienoic acid]", "values": [
      {"measurement": "ED50", "setting": "[1]", "value": 5.4, "unit": "µg/kg"},
      {"measurement": "ED50", "setting": "[2]", "value": 24, "unit": "µg/kg"},
      {"measurement": "ED50", "setting": "[3]", "value": 10.6, "unit": "µg/kg"}
    ]}
  ]
}
